According to patent US20250276984A1, “SOLID STATE FORMS OF HER2 INHIBITORS” (Iambic Therapeutics, Inc., priority 2024, published 2025):
In brackets after ≈: the same amount, converted by molar mass.

What was measured:
[1] = Dynamic vapor sorption (DVS); format: physicochemical; design: Hysteresis: unit not given here
Description: By DVS, a weight gain of 2.8 weight %, consistent with a gain of 0.9 mol water, was observed from 6% to 95% RH. A complete desorption was observed from 95% to 6% RH. No significant hysteresis was observed. The resulting crystalline material was analyzed by XRPD and shown to the Form A.

[2] = Solubility estimated by solvent aliquot addition at ambient temperature; format: physicochemical; details: thermodynamic from solid
Description: Solubilities were estimated by solvent aliquot addition at ambient temperature and reported to the nearest whole number; if complete dissolution was achieved by one aliquot addition, the value is reported as “>”; if solids were present, the value is reported as “<”. The actual solubility may be larger than the value calculated because of the use of solvent aliquots that were too large or due to a slow rate of dissolution.

[3] = Cycle 1, target RH 95.0%, sample RH 95.4%

Cc1cc(Nc2ncnn3ccc(C4CCN(C(=O)/C=C/CN(C)C)CC4)c23)ccc1Oc1ccn2ncnc2c1 [Compound 1 Form A, (E)-1-(4-(4-((4-([1,2,4]triazolo[1,5-a]pyridin-7-yloxy)-3-methylphenyl)amino)pyrrolo[2,1-f][1,2,4]triazin-5-yl)piperidin-1-yl)-4-(dimethylamino)but-2-en-1-one]
Sorp Mass Change ([1]; Cycle 1, target RH 5.0%, sample RH 5.5%): 0.004%
Desorp Mass Change ([1]; Cycle 1, target RH 5.0%, sample RH 5.8%): −0.017%
Hysteresis ([1]; Cycle 1, target RH 15.0%): −0.006
Desorp Mass Change ([1]; Cycle 1, target RH 15.0%, sample RH 15.3%): 0.271%
Sorp Mass Change ([1]; Cycle 1, target RH 15.0%, sample RH 15.5%): 0.277%
Hysteresis ([1]; Cycle 1, target RH 25.0%): 0.039
Sorp Mass Change ([1]; Cycle 1, target RH 25.0%, sample RH 24.6%): 0.609%
Desorp Mass Change ([1]; Cycle 1, target RH 25.0%, sample RH 25.0%): 0.648%
Hysteresis ([1]; Cycle 1, target RH 35.0%): 0.075
Sorp Mass Change ([1]; Cycle 1, target RH 35.0%, sample RH 34.3%): 1.034%
Desorp Mass Change ([1]; Cycle 1, target RH 35.0%, sample RH 34.8%): 1.109%
Hysteresis ([1]; Cycle 1, target RH 45.0%): 0.104
Sorp Mass Change ([1]; Cycle 1, target RH 45.0%, sample RH 44.4%): 1.470%
Desorp Mass Change ([1]; Cycle 1, target RH 45.0%, sample RH 44.9%): 1.573%
Hysteresis ([1]; Cycle 1, target RH 55.0%): 0.123
Sorp Mass Change ([1]; Cycle 1, target RH 55.0%, sample RH 54.3%): 1.811%
Desorp Mass Change ([1]; Cycle 1, target RH 55.0%, sample RH 54.8%): 1.934%
Hysteresis ([1]; Cycle 1, target RH 65.0%): 0.112
Sorp Mass Change ([1]; Cycle 1, target RH 65.0%, sample RH 64.4%): 2.087%
Desorp Mass Change ([1]; Cycle 1, target RH 65.0%, sample RH 64.9%): 2.199%
Hysteresis ([1]; Cycle 1, target RH 75.0%): 0.116
Sorp Mass Change ([1]; Cycle 1, target RH 75.0%, sample RH 74.5%): 2.315%
Desorp Mass Change ([1]; Cycle 1, target RH 75.0%, sample RH 75.1%): 2.431%
Hysteresis ([1]; Cycle 1, target RH 85.0%): 0.096
Sorp Mass Change ([1]; Cycle 1, target RH 85.0%, sample RH 85.1%): 2.559%
Desorp Mass Change ([1]; Cycle 1, target RH 85.0%, sample RH 86.2%): 2.656%
Desorp Mass Change [1, 3]: 2.849%
Sorp Mass Change [1, 3]: 2.849%
water gain consistent with DVS weight gain ([1]; from 6% to 95% RH): 0.9 mol water
weight gain by DVS ([1]; from 6% to 95% RH): 2.8 weight %
solubility ([2]; aqueous with cosolvent or surfactant or cyclodextrin, 10:90 dioxane/water v/v): < 1 mg/mL
solubility ([2]; aqueous with cosolvent or surfactant or cyclodextrin, 20:80 MeOH/water v/v): < 1 mg/mL
solubility ([2]; aqueous with cosolvent or surfactant or cyclodextrin, 35:65 THF/water v/v): 17 mg/mL (≈ 30.8 mM)
solubility ([2]; aqueous with cosolvent or surfactant or cyclodextrin, 50:50 ACN/water v/v): > 72 mg/mL
solubility ([2]; aqueous with cosolvent or surfactant or cyclodextrin, 50:50 DMAc/water v/v): 10 mg/mL (≈ 18.1 mM)
solubility ([2]; aqueous with cosolvent or surfactant or cyclodextrin, 50:50 MeOH/water v/v): 4 mg/mL (≈ 7.25 mM)
solubility ([2]; aqueous with cosolvent or surfactant or cyclodextrin, 50:50 THF/water v/v): > 31 mg/mL
solubility ([2]; aqueous with cosolvent or surfactant or cyclodextrin, 50:50 acetone/water v/v): 24 mg/mL (≈ 43.5 mM)
solubility ([2]; aqueous with cosolvent or surfactant or cyclodextrin, 50:50 dioxane/water v/v): 29 mg/mL (≈ 52.6 mM)
solubility ([2]; organic solvent or mixture, 2-MeTHF): 5 mg/mL (≈ 9.06 mM)
solubility ([2]; organic solvent or mixture, 10:90 chloroform/IPA v/v): 27 mg/mL (≈ 48.9 mM)
solubility ([2]; organic solvent or mixture, 20:80 MeOH/EtOAc v/v): > 51 mg/mL
solubility ([2]; organic solvent or mixture, 30:70 DCM/toluene v/v): 9 mg/mL (≈ 16.3 mM)
solubility ([2]; organic solvent or mixture, 30:70 DMAc/MTBE v/v): 29 mg/mL (≈ 52.6 mM)
solubility ([2]; organic solvent or mixture, 30:70 EtOH/toluene v/v): > 88 mg/mL
solubility ([2]; organic solvent or mixture, 50:50 DCM/toluene v/v): 50 mg/mL (≈ 90.6 mM)
solubility ([2]; organic solvent or mixture, 50:50 DMAc/toluene v/v): > 28 mg/mL
solubility ([2]; organic solvent or mixture, 50:50 EtOAc/IPA v/v): 17 mg/mL (≈ 30.8 mM)
solubility ([2]; organic solvent or mixture, 50:50 EtOAc/MIBK v/v): 4 mg/mL (≈ 7.25 mM)
solubility ([2]; organic solvent or mixture, 70:30 THF/heptane v/v): 10 mg/mL (≈ 18.1 mM)
solubility ([2]; organic solvent or mixture, ACN): 7 mg/mL (≈ 12.7 mM)
solubility ([2]; organic solvent or mixture, Acetone): 15 mg/mL (≈ 27.2 mM)
solubility ([2]; organic solvent or mixture, DCM): > 88 mg/mL
solubility ([2]; organic solvent or mixture, DMAc): > 110 mg/mL
solubility ([2]; organic solvent or mixture, EtOAc): 3 mg/mL (≈ 5.44 mM)
solubility ([2]; organic solvent or mixture, IPA): 3 mg/mL (≈ 5.44 mM)
solubility ([2]; organic solvent or mixture, MIBK): 3 mg/mL (≈ 5.44 mM)
solubility ([2]; organic solvent or mixture, MTBE): < 1 mg/mL
solubility ([2]; organic solvent or mixture, MeOH): > 116 mg/mL
solubility ([2]; organic solvent or mixture, THF): 38 mg/mL (≈ 68.9 mM)
solubility ([2]; organic solvent or mixture, chloroform): > 100 mg/mL
solubility ([2]; organic solvent or mixture, cyclohexane): < 1 mg/mL
solubility ([2]; organic solvent or mixture, dioxane): 32 mg/mL (≈ 58 mM)
solubility ([2]; organic solvent or mixture, heptane): < 2 mg/mL
solubility ([2]; organic solvent or mixture, toluene): < 1 mg/mL
solubility ([2]; water): < 1 mg/mL
